Results reported in patent publication US10682333B2, “Composition for inhibiting formation of SNARE complex, containing myricetin derivatives” (RESEARCH & BUSINESS FOUNDATION SUNGKYUNKWAN UNIVERSITY, priority 2015, dated 2020).
Like-named read-outs stand apart in the source and are kept apart here.

Assays:
[1] = biological target: T1, SNARE complex (Syntaxin 1A-CFP, VAMP2-YFP) in PCl2 cells (UniProt P60881+P63027+Q16623); assay: In vivo (cell) SNARE function screen: FRET C and NPY release in PCl2 cells; format: cell-based
T1 construct: expressed in transfected cells

[2] = Light stability under UV, color observed with the naked eye over time; format: physicochemical; conditions: UV lamp
Experimental: It was examined whether myricetin, and laricitrin and syringetin, which are naturally occurring myricetin derivatives, were denatured when exposed to UV. First, each myricetin derivative (MP, 1 mg/1.34 g), prepared by reacting myricetin (M, 1 mg/1.34 g) and palmitic acid, was uniformly mixed in a commercially available sunblock cream (Kolmar Korea, NoTS UV protection sunscreen cream, 1.34 g), and the mixture was applied on a cover glass, followed by irradiation for 24 hours with UV having an intensity of 253.7 nM using a UV lamp.

[3] = test system: PCl2 cells; assay: [3H] norepinephrine release from PCl2 cells (liquid scintillation); format: cell-based; conditions: for inhibition of release of [3H] norepinephrine: Krebs' buffer with high K+
Experimental: The first method is as follows. […] After thorough washing, the PCl2 cells were washed four times with the culture medium for 15 minutes each. […] The medium was replaced with Krebs' buffer with high K^+, followed by culturing for 10 minutes, to collect samples. The collected samples were subjected to radiation measurement using a liquid scintillation counter.

[4] = biological target: T2, SNARE complexes (Homo sapiens, UniProt P60880+P63027+Q16623); assay: Immunoblotting of SDS-resistant SNARE complexes, in vivo; format: cell-based; conditions: SDS-PAGE
Text: (§1) The above characteristics were clearly confirmed by immunoblotting of SNARE complexes (see FIG. 2B). SNARE complexes are known to have SDS-resistance, and based on these characteristics, immunoblotting using SDS-PAGE is generally used to identify the formation of SNARE complexes.

[5] = test system: PCl2 cells; assay: Intracellular bioconversion into myricetin in PCl2 cells (HPLC); format: in vitro ADME; conditions: within 1 hour
Experimental: A rate of bioconversion of the myricetin derivative prepared by acylation with acetic acid into myricetin in vivo was determined.
After the cells were completely washed, the cells were treated with trypsin to collect trypsin-attached cells, and trypsin was removed therefrom to obtain only pure cells. The cells were suspended in 100 μl of tetrahydrofuran, followed by disruption through sonication, and then only tetrahydrofuran in which materials in the cells were lysed was collected. Subsequently, only myricetin in the recovered purified liquid was analyzed by high-performance liquid chromatography (HPLC) to examine whether the myricetin derivative prepared by acylation using acetic acid was converted into myricetin, and the results thereof are illustrated in FIG. 15.

[6] = Solubility in canola oil and mineral oil; format: physicochemical
Experimental: In the present experimental example, in view of the fact that in Example 4, myricetin underwent various changes in properties during synthesis of a myricetin derivative, in which all hydroxyl groups of myricetin were acylated by palmitic acid, the solubilities of the myricetin derivative in an organic solvent, or in a commercially available liposoluble cosmetic, food product, or the like were measured.
In particular, the myricetin derivative was dissolved in canola oil and mineral oil at a ratio of 1 mg/l ml. The results thereof are illustrated in FIG. 13.

[7] = Examination of color of myricetin derivatives by degree of acylation; format: physicochemical; conditions: degree of acylation by palmitic acid
Text: In the present experimental example, whether a disadvantage of myricetin that a too dark intrinsic color thereof causes the skin to be stained can be addressed through making changes in properties using myricetin derivatives according to the present invention was examined.
As a result, it was observed that as a degree to which a hydroxyl group of myricetin was acylated by palmitic acid, i.e., the degree of acylation, increased, colors of the myricetin derivatives were changed, unlike conventional myricetin. In particular, it was observed that the myricetin derivative obtained in Example 3, in which one hydroxyl group of myricetin was acylated by palmitic acid, had yellow color, which is an intrinsic color of myricetin (see FIG. 12A), whereas the myricetin derivative obtained in Example 4, in which all hydroxyl groups of myricetin were acylated by palmitic acid, had white color (see FIG. 12B).

[8] = biological target: T2, SNARE complexes; assay: Immunoblotting of SDS-resistant SNARE complexes, in vitro; format: biochemical; conditions: SDS-PAGE
Text: as §1

[9] = biological target: SNARE-mediated membrane fusion (Homo sapiens, UniProt P60880+P63027+Q16623); assay: In vitro membrane fusion by FRET on dye-labelled lipid bilayer membrane; format: biochemical; conditions: artificial lipid bilayer membrane
[10] = Light stability under UV, DMSO solution mixed with zinc oxide; format: physicochemical; conditions: 1 mg/ml DMSO with zinc oxide, UV 2 hours
Experimental: First, 1 mg of each of myricetin and the myricetin derivatives were dissolved in 1 ml of dimethyl sulfoxide (DMSO), followed by mixing with zinc oxide having high reactivity with a hydroxyl group of myricetin. The resulting mixed solution was applied, as 100 μl drops, on 3M paper, and irradiated for 2 hours with UV light having an intensity of 253.7 nM using a UV lamp. As negative controls, untreated DMSO and a mixed solution of untreated DMSO and zinc oxide were used.

T2 sequence (Q16623 whole entry): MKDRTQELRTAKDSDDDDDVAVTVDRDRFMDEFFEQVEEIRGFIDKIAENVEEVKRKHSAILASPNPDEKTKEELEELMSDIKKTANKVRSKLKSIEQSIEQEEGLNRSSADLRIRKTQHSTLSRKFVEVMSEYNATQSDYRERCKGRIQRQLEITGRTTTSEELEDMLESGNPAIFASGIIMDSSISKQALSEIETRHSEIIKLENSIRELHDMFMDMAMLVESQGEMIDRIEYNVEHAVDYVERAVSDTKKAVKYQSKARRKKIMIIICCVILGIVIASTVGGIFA
T2 sequence (P60880 whole entry): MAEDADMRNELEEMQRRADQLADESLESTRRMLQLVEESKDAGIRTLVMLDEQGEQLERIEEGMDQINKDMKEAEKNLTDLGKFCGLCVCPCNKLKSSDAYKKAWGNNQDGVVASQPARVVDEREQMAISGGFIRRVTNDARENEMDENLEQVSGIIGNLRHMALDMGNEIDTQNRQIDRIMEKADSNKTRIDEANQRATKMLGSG
T2 sequence (P63027 whole entry): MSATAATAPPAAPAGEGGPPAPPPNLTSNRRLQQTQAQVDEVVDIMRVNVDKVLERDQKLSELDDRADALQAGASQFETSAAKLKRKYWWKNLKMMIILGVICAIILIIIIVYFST
T1 sequence (Q16623 whole entry): as the sequence (Q16623 whole entry) above
T1 sequence (P63027 whole entry): as the sequence (P63027 whole entry) above
T1 sequence (P60881 whole entry): as the sequence (P60880 whole entry) above
Chain of SNARE-mediated membrane fusion (Q16623 whole entry, the tested form may be a part): as the sequence (Q16623 whole entry) above
Chain of SNARE-mediated membrane fusion (P60880 whole entry, the tested form may be a part): as the sequence (P60880 whole entry) above
Chain of SNARE-mediated membrane fusion (P63027 whole entry, the tested form may be a part): as the sequence (P63027 whole entry) above

Compound	in vivo functions (FRET C, NPY release) [1]	color change on UV irradiation compared to myricetin [2]	time after UV irradiation at which color turned brown [2]	inhibition of release of [3H] norepinephrine [3]	formation of SNARE complexes in vivo [4]	other results
COc1cc(-c2oc3cc(O)cc(O)c3c(=O)c2O)cc(O)c1O [laricitrin]	40-45 % of the control	did not show clear color changes	60 min	highest reactivity	decreasing tendency only in vivo	activity of inhibiting [3H] norepinephrine release compared to conventional myricetin ([3]; 20 μM): at least two-fold improved activity
COc1cc(-c2oc3cc(O)cc(O)c3c(=O)c2O)cc(OC)c1O [syringetin]	–	did not show clear color changes	240 min	–	decreasing tendency only in vivo	–
CC(=O)Oc1cc(OC(C)=O)c2c(=O)c(OC(C)=O)c(-c3cc(OC(C)=O)c(OC(C)=O)c(OC(C)=O)c3)oc2c1 [MA]	–	–	–	comparable or slightly better activity	–	fraction bioconverted into myricetin [5]: 3%
COc1cc(O)c2c(=O)c(OC)c(-c3cc(OC)c(OC)c(OC)c3)oc2c1 [combretol]	40-45 % of the control	–	–	–	decreasing tendency only in vivo	–
CCCCCCCCCCCCCCCC(=O)Oc1cc(OC(=O)CCCCCCCCCCCCCCC)c2c(=O)c(OC(=O)CCCCCCCCCCCCCCC)c(-c3cc(OC(=O)CCCCCCCCCCCCCCC)c(OC(=O)CCCCCCCCCCCCCCC)c(OC(=O)CCCCCCCCCCCCCCC)c3)oc2c1 [MP]	–	–	–	–	–	solubility in canola oil [6]: liposoluble; solubility in mineral oil [6]: liposoluble; color of the substance [7]: white color
O=c1c(O)c(-c2cc(O)c(O)c(O)c2)oc2cc(O)cc(O)c12 [myricetin]	–	–	5 min	concentration-dependent manner	decreasing tendency	solubility in canola oil ([6]; 1 mg/1 ml): insoluble; solubility in mineral oil ([6]; 1 mg/1 ml): insoluble; in vivo functions (FRET C, NPY release) ([1]; PCl2 cells): ≤ 40 % of the control; formation of SNARE complexes in vitro [8]: decreasing tendency; time after UV irradiation at which color turned dark brown (complete oxidation) [2]: 30 min; in vitro functions (membrane fusion) [9]: ≤ 40 % of the control; color change on UV exposure [10]: color changes over time
